Experiment [1] has as its system KB cells. The experiment in a line: Cytotoxicity: 50% reduction in cell number of KB cells after three day incubation. The class given is cell-based. The following applies: Homo sapiens, 72 h, read-out: Cytotoxicity ID50 KB. The procedure: (§1) The compounds of the present invention were tested for their degree of inhibitory activity on human type II DNA topoisomerase, their effect on the formation of protein-linked DNA breakage, and their cytotoxicity. The inhibitory activity for compounds of the present invention correlated with the ability of the compounds to cause DNA strand breakage. […] For a description of the assays used with respect to the compounds listed in Tables 1 to 5 see Thurston, L.S., Irie, H., Tani, S., Han, F. S., Liu, Z. C., Cheng, Y.C., and Lee, K. H., Antitumor Agents 78. Inhibition of Human DNA Topoisomerase II by Podophyllotoxin and Peltatin Analogues, J. Med. Chem. 29, 1547 (1986), and the references cited therein, herein incorporated by reference.
in cell number after three day incubation.

The target in experiment [2] is Human DNA topoisomerase II. In words: DNA topoisomerase II assay (P4 unknotting reaction). The class given is biochemical. The settings on record: read-out: Inhibition of DNA Topoisomerase II Activity ID50. The protocol:
as §1, with “cytotoxicity.” for “cytotoxicity. The inhibitory activity for compounds of the present invention correlated with the ability of the compounds to cause DNA strand breakage.”
Human DNA topoisomerase II was isolated from peripheral blast cells of a patient with acute leukemia. The isolation procedure is described in Thurston, L., Imakura, Y., Haruna, M., Li, Z. C., Liu, S. Y., and Lee, K. H., J. Med. Chem., 31, […] (1988) and is a partial combination of the procedure described in Goto, T., Laiapia, P. and Wang, J., J. Biol. Chem., 259, 10422 (1984) and Halligan, B., Edwards, K., and Liu, L., J. Biol. Chem., 260, 2475 (1985) which are herein specifically incorporated by reference.
Drugs were dissolved in Me2 SO at a concentration of 20 mM as the stock solution and diluted before use with water to the desired concentration of each drug.
The P4 unknotting reaction was a modification of the procedure described by Hseih, T., J. Biol. Chem., 258, 8413 (1985), which is herein specifically incorporated by reference.
The reaction mixture (20 μL), which contained 50 mM HEPES, pH 7.0, 50 mM KCI, 100 mM NaCl, 0.1 mM EDTA, 10 mM MgCl2, 1.0 mM ATP, 50 μg/mL bovine serum albumin, 0.4 μg P4knotted DNA, and enzyme, was incubated with or without drugs.
The reaction mixture was incubated at 37° C. for 30 min and terminated by adding 5.0 μl of a stop solution (2% sodium dodecyl sulfate, 20% glycerol, 0.05% bromophenol blue). These samples were loaded onto a 1% agarose gel and electrophoresed at 55 V overnight with an electrophoresis buffer that contained 90 mM Tris-boric acid, pH 8.3, and 2.5 mM EDTA. At completion, the gel was stained in 0.5 μg/mL of ethidium bromide. Then a photograph was taken of the DNA bands visualized with fluorescence induced by a long-wavelength UV lamp. […]

Setting [3] is: Table 4, KB cells, three day incubation.
The mark [4] stands for this setting: Table 4, based on degree of inhibition at 10, 25, 50 and 100 μM.
The mark [5] stands for this setting: Table 3, KB cells, three day incubation.
Setting [6] is: Table 3, based on degree of inhibition at 20, 25, 50 and 100 μM.
The mark [7] stands for this setting: Table 5, KB cells, three day incubation.
Setting [8] is: Table 5, based on degree of inhibition at 10, 25, 50 and 100 μM.
Setting [9] is: Table 2, KB cells, three day incubation.
Setting [10] is: Table 2, based on degree of inhibition at 10, 25, 50 and 100 μM.
Where [11] appears, read: Table 1, KB cells, three day incubation.
Where [12] appears, read: Table 1, based on degree of inhibition at 25, 50, and 100 μM.

Structures are written as SMILES. Read-outs that look alike come from different tables or passages of the source. Bounds are passed on as bounds.

IC50 data for 23 molecules are collected here from US5332811A, “Etopside analogs” (priority 1991, dated 1994).

As to `COc1cc([C@@H]2c3cc4c(cc3[C@@H](NC(=O)c3cccc(N)c3)[C@H]3COC(=O)[C@H]23)OCO4)cc(OC)c1O` [Example 42, 4'-O-Demethyl-4β-[(3"-aminobenzoyl)amino]-4-desoxypodophyllotoxin], the IC50 in experiment [1] (setting [3]) came to 0.42 µM; in experiment [2] (setting [4]) it was 25 µM.
As to `COc1cc([C@@H]2c3cc(O)c(O)cc3[C@@H](Nc3ccc(F)cc3)[C@H]3COC(=O)[C@H]23)cc(OC)c1O` [Example 30, 6,7-O-Demethylene-4'-O-demethyl-4β-(fluoroanilino)-4-desoxypodophyllotoxin], the IC50 in experiment [1] (setting [5]) was over 1 µM; in experiment [2] (setting [6]) it was 25 µM.
Turning to `COC1=CC([C@@H]2c3cc4c(cc3[C@@H](Nc3ccc(F)cc3)[C@H]3COC(=O)[C@@H]32)OCO4)=CC(=O)C1=O` [Example 43, 3',4'-Didemethoxy-3',4'-dioxo-4β-(4"-fluoroanilino)-4-desoxypodophyllotoxin], the IC50 is over 2.1 µM in experiment [1] (setting [7]) and 25 µM in experiment [2] (setting [8]).
For the molecule `COc1cc(C2c3cc4c(cc3C(Nc3ccc(F)cc3)C3COC(=O)C23)OCO4)cc(O)c1O` (stereo not drawn) [Example 18, 3',4'-O-didemethyl-4β-(4"-floroanilino)-4-desoxypodophyllotoxin], the IC50 stood at 3 µM in experiment [1] (setting [9]) and 10 µM in experiment [2] (setting [10]).
Turning to `COc1cc(C2c3cc4c(cc3C(NCc3ccccc3)C3COC(=O)C23)OCO4)cc(OC)c1O` (stereo not drawn) [Example 3, 4'-O-Demethyl-4β-benzylamino-4-desoxypodophyllotoxin], the IC50 in experiment [1] (setting [11]) turned out to be 2.2 µM; in experiment [2] (setting [12]) it was 25 µM.
In the case of `COc1cc(C2c3cc4c(cc3C(NCc3ccccc3[N+](=O)[O-])C3COC(=O)C23)OCO4)cc(OC)c1O` (stereo not drawn) [Example 6, 4'-O-Demethyl-4β-(2"-nitrobenzylamino)-4-desoxypodophyllotoxin], the IC50 in experiment [1] (setting [11]) came out at 1.8 µM; in experiment [2] (setting [12]) it was 50 µM.
Regarding `COc1cc(C2c3cc4c(cc3C(Nc3ccc5c(c3)OCCO5)C3COC(=O)C23)OCO4)cc(O)c1O` (stereo not shown) [Example 20], the results for the IC50 in experiment [1] (setting [9]) and in experiment [2] (setting [10]) were 2.3 µM and 10 µM, respectively.
For `COc1cc(C2c3cc4c(cc3C(NCc3cccc(N)c3)C3COC(=O)C23)OCO4)cc(OC)c1O` (stereo not drawn) [Example 13, 4'-O-Demethyl-4β-(3"-aminobenzylamino)-4-desoxypodophyllotoxin], the IC50 is under 0.4 µM in experiment [1] (setting [11]) and 25 µM in experiment [2] (setting [12]).
Take `COc1cc2c(cc1OC)[C@@H](Nc1ccc(C#N)cc1)[C@H]1COC(=O)[C@@H]1[C@@H]2c1cc(OC)c(O)c(OC)c1` [Example 32, 6,7-O-demethylene-6,7-O-dimethyl-4'-O-demethyl-4β-(4"-cyanoanilino)-4-desoxypodophyllotoxin]: the values for the IC50 in experiment [1] (setting [5]) and in experiment [2] (setting [6]) were under 0.4 µM and 50 µM, respectively.
As to `COc1cc2c(cc1OC)[C@@H](Nc1ccc(F)cc1)[C@H]1COC(=O)[C@@H]1[C@@H]2c1cc(OC)c(O)c(OC)c1` [Example 31, 6,7-O-demethylene-6,7-O-dimethyl-4'-O-demethyl-4β-(4"-fluoroanilino)-4-desoxypodophyllotoxin], the IC50 turned out to be 0.4 µM in experiment [1] (setting [5]) and 50 µM in experiment [2] (setting [6]).
`COc1cc(C2c3cc4c(cc3C(NCc3ccc([N+](=O)[O-])cc3)C3COC(=O)C23)OCO4)cc(OC)c1O` (stereo not drawn) [Example 4, 4'-O-Demethyl-4β-(4"-nitrobenzylamino)-4-desoxypodophyllotoxin]: the IC50 in experiment [1] (setting [11]) is 0.4 µM; in experiment [2] (setting [12]), 50 µM.
For `COc1cc(C2c3cc4c(cc3C(Nc3ccccc3)C3COC(=O)C23)OCO4)cc(O)c1O` (stereo not drawn) [Example 17, 3',4'-O-Didemethyl-4β-anilino-4-desoxypodophyllotoxin], the figures for the IC50 in experiment [1] (setting [9]) and in experiment [2] (setting [10]) were 1.7 µM and 25 µM, respectively.
Turning to `COc1cc([C@@H]2c3cc4c(cc3[C@@H](NC(=O)c3ccc(OC(C)=O)cc3)[C@H]3COC(=O)[C@H]23)OCO4)cc(OC)c1O` [Example 37, 4'-O-Demethyl-4β-[(4-acetoxybenoyl)amino]-4-desoxypodophyllotoxin], the IC50 in experiment [1] (setting [3]) was 0.61 µM; in experiment [2] (setting [4]) it was 25 µM.
In the case of `COc1cc([C@@H]2c3cc(O)c(O)cc3[C@@H](Nc3ccccc3)[C@H]3COC(=O)[C@H]23)cc(OC)c1O` [Example 26, 6,7-O-Demethylene-4'-O-demethyl-4β-anilino-4-desoxypophyllotoxin], the IC50 was over 1 µM in experiment [1] (KB) and 25 µM in experiment [2] (setting [6]).
For the molecule `COc1cc([C@@H]2c3cc4c(cc3[C@@H](NC(=O)c3ccccc3)[C@H]3COC(=O)[C@H]23)OCO4)cc(OC)c1O` [Example 34, 4'-O-Demethyl-4β-(benzoylamino)-4-desoxypodophyllotoxin], the IC50 is 0.64 µM in experiment [1] (setting [3]) and over 50 µM in experiment [2] (setting [4]).
Turning to `COc1cc(C2c3cc4c(cc3C(Nc3ccc(C#N)cc3)C3COC(=O)C23)OCO4)cc(O)c1O` (stereo not drawn) [Example 22, 3'.4'-O-Didemethyl-4β-(4"-cyanoanilino)-4-desoxypodophyllotoxin], the IC50 came out at 1.5 µM in experiment [1] (setting [9]) and 10 µM in experiment [2] (setting [10]).
For `COc1cc([C@@H]2c3cc(O)c(O)cc3[C@@H](Nc3ccc([N+](=O)[O-])cc3)[C@H]3COC(=O)[C@H]23)cc(OC)c1O` [Example 27, 6,7-O-Demethylene-4'-O-demethyl-4β-(4"-nitroanilino)-4-desoxypodophyllotoxin], the IC50 in experiment [1] (setting [5]) stood at 0.76 µM; in experiment [2] (setting [6]) it was 20 µM.
For the molecule `COC(=O)c1cccc(N[C@@H]2c3cc4c(cc3[C@@H](c3cc(O)c(O)c(OC)c3)[C@H]3C(=O)OC[C@@H]32)OCO4)c1` [Example 21, 3'.4'-O-Didemethyl-4β-(3"-methoxycarbonylanilino)-4-desoxypodophyllotoxin], the IC50 in experiment [1] (setting [9]) is 1.9 µM; in experiment [2] (setting [10]), 1 µM.
`COc1cc([C@@H]2c3cc4c(cc3[C@@H](NC(=O)c3cccc([N+](=O)[O-])c3)[C@H]3COC(=O)[C@H]23)OCO4)cc(OC)c1O` [Example 41, 4'-O-Demethyl-4β-[(3"-nitrobenzoyl)amino]-4-desoxypodophyllotoxin]: the IC50 in experiment [1] (setting [3]) amounted to 0.33 µM; in experiment [2] (setting [4]), 10 µM.
On to `COC1=CC([C@@H]2c3cc4c(cc3[C@@H](Nc3ccc([N+](=O)[O-])cc3)[C@H]3COC(=O)[C@@H]32)OCO4)=CC(=O)C1=O` [Example 44, 3',4'-Didemethoxy-3',4'-dioxo-4β-(4"-nitroanilino)-4-desoxypodophyllotoxin], for which the IC50 in experiment [1] (KB) is 1.5 µM; in experiment [2] (setting [8]), 10 µM.
On to `COc1cc(C2c3cc4c(cc3C(NCc3ccccc3N)C3COC(=O)C23)OCO4)cc(OC)c1O` (stereo not shown) [Example 14], for which the IC50 in experiment [1] (setting [11]) was under 0.4 µM; in experiment [2] (setting [12]), 25 µM.
As for `CCOC(=O)c1ccc(N[C@@H]2c3cc4c(cc3[C@@H](C3=CC(=O)C(=O)C(OC)=C3)[C@H]3C(=O)OC[C@@H]32)OCO4)cc1` [Example 45, 3',4'-Didemethoxy-3',4'-dioxo-4β-[(4"-ethoxycarbonyl)anilino]-4-desoxypodophyllotoxin], the IC50 in experiment [1] (setting [7]) stood at 1.1 µM; in experiment [2] (setting [8]), 25 µM.
As for `COc1cc(CNC2c3cc4c(cc3C(c3cc(OC)c(O)c(OC)c3)C3C(=O)OCC23)OCO4)cc(OC)c1` (stereo not drawn) [Example 12, 4'-O-Demethyl-4β-(3",5"-dimethoxybenzylamino)-4-desoxypodophyllotoxin], the results for the IC50 in experiment [1] (setting [11]) and in experiment [2] (setting [12]) were 1.7 µM and 100 µM, respectively.
